Laboratory results as given in patent US20130252930A1 (BIOMARIN PHARMACEUTICAL INC., priority 2010, published 2013).
Where two headings read alike, the source gives them in different places.

Columns and labels:
[1] = target: T1, Cyp21 enzyme (Human HEK 293-Cyp21 stable transfected cells) (Homo sapiens, UniProt P08686); assay: CYP21-HEK293 enzymatic assay (IC50) (Biological Example 11); format: cell-based
T1 construct: expressed in transfected cells
T1 sequence (P08686 1-495): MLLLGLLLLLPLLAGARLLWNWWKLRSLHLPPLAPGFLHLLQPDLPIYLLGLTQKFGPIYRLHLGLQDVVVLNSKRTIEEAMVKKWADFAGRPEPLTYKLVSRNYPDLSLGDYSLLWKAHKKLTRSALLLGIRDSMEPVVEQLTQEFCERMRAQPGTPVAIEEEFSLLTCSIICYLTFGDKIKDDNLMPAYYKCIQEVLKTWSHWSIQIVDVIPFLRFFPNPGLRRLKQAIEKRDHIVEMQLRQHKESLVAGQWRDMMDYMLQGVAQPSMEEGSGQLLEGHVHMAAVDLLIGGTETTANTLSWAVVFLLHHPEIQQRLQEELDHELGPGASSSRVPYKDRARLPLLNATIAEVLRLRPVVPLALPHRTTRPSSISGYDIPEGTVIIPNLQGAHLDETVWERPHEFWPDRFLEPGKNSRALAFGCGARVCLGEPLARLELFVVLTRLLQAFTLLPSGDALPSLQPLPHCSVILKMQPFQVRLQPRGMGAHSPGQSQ

[2] = target: T2, CYP17 (human testicular microsome) (Homo sapiens, UniProt P05093); assay: CYP17 enzymatic assay (% inhibition at 1 nM) (Biological Example 12); format: biochemical; settings: compound at 1 nM
T2 construct: using microsomal fraction from human testis (Celsis Cat #S00110) as the enzyme source; tissue Celsis S00110; host or cells: human testis microsomal fraction
T2 sequence (P05093 1-508): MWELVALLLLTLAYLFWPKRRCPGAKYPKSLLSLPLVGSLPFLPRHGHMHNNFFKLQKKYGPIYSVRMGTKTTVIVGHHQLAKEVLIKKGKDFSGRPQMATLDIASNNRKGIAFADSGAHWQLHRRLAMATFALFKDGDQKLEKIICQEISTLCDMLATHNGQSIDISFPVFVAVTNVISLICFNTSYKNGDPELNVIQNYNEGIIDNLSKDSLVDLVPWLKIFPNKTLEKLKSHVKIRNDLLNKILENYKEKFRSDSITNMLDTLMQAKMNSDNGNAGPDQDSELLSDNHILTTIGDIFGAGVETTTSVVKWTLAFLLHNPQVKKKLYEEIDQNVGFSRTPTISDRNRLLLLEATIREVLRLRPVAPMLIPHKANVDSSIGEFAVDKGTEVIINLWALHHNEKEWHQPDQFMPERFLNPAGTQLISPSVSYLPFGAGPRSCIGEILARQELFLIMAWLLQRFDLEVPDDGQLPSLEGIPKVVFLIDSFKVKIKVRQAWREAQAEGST

[3] = HEK 293-Cyp21 cells, read-out: CYP21-HEK293 enzymatic assay IC50 (Biological Example No. 11)
[4] = read-out: CYP17 enzymatic assay % inhibition at 1 nM (Biological Example No. 12)
[5] = HEK 293-Cyp21 cells, read-out: Biological Example No. 11: CYP21-HEK293 enzymatic assay IC50
[6] = read-out: Biological Example No. 12: CYP17 enzymatic assay % inhibition at 1 nM
[7] = HEK 293-Cyp21 stable transfected cells, read-out: CYP21-HEK293 enzymatic assay IC50 (Biological Example No. 11)

SMILES: Cc1cccc(C)c1C(=O)O[C@H]1CC[C@@]2(C)C(=CCC3C4=CC=C(c5cccnc5)[C@@]4(C)CCC32)C1 (stereo partly drawn) [Compound 196, (3S,10R,13S)-10,13-dimethyl-17-(pyridin-3-yl)-2,3,4,7,8,9,10,11,12,13-decahydro-1H-cyclopenta[a]phenanthren-3-yl 2,6-dimethylbenzoate]
- IC50 [1, 3]: > 1000 nM
- inhibition at 0.001 µM [2, 4]: < 10%

SMILES: C[C@]12CCC3C(CC=C4C=CCC[C@@]43C)C1=CC=C2c1cccnc1 (stereo partly drawn) [Compound 197, 3-((10R,13S)-10,13-dimethyl-2,7,8,9,10,11,12,13-octahydro-1H-cyclopenta[a]phenanthren-17-yl)pyridine]
- IC50 [1, 3]: > 1000 nM
- inhibition at 0.001 µM [2, 4]: 10 to 50%

SMILES: Cc1cccc(C)c1C(=O)O[C@@H]1CC[C@@]2(C)C(=CCC3C4=CC=C(c5cccnc5)[C@@]4(C)CCC32)C1 (stereo partly drawn) [Compound 198, (3R,10R,13S)-10,13-dimethyl-17-(pyridin-3-yl)-2,3,4,7,8,9,10,11,12,13-decahydro-1H-cyclopenta[a]phenanthren-3-yl 2,6-dimethylbenzoate]
- IC50 [1, 3]: > 1000 nM
- inhibition at 0.001 µM [2, 4]: < 10%

SMILES: C[C@]12CC[C@@H](NS(=O)(=O)C3CC3)CC1=CC[C@@H]1[C@@H]2CC[C@]2(C)C(c3cccnc3)=CC[C@@H]12 [Compound 228, N-((3R,10R,13S)-10,13-dimethyl-17-(pyridin-3-yl)-2,3,4,7,8,9,10,11,12,13,14,15-dodecahydro-1H-cyclopenta[a]phenanthren-3-yl)cyclopropanesulfonamide]
- IC50 [1, 3]: > 1000 nM
- inhibition at 0.001 µM [2, 4]: 10 to 50%

SMILES: CC1=C2CCC3C4=CC=C(c5cccnc5)[C@@]4(C)CCC3[C@@]2(C)CCC1=O (stereo partly drawn) [Compound 296, (10R,13S)-4,10,13-trimethyl-17-(pyridin-3-yl)-6,7,8,9,10,11,12,13-octahydro-1H-cyclopenta[a]phenanthren-3(2H)-one]
- IC50 [1, 3]: > 100 nM
- inhibition at 0.001 µM [2, 4]: > 50%

SMILES: CC1C(=O)CC[C@@]2(C)C1CC[C@@H]1[C@@H]2CC[C@]2(C)C(c3cccnc3)=CC[C@@H]12 (stereo partly drawn) [Compound 303, (10R,13S)-4,10,13-trimethyl-17-(pyridin-3-yl)-4,5,6,7,8,9,10,11,12,13,14,15-dodecahydro-1H-cyclopenta[a]phenanthren-3(2H)-one]
- IC50 [1, 5]: > 1000 nM
- inhibition at 0.001 µM [2, 6]: 10 to 50%

SMILES: CC1CC2C3=CC=C(c4ccc(F)nc4)[C@@]3(C)CCC2[C@@]2(C)CCC(=O)C=C12 (stereo partly drawn) [Compound 326, (10R,13S)-17-(6-fluoropyridin-3-yl)-6,10,13-trimethyl-6,7,8,9,10,11,12,13-octahydro-1H-cyclopenta[a]phenanthren-3(2H)-one]
- IC50 [1, 5]: > 1000 nM
- inhibition at 0.001 µM [2, 6]: 10 to 50%

SMILES: CC1CC2C3=CC=C(c4cncc(C(F)F)c4)[C@@]3(C)CCC2[C@@]2(C)CCC(=O)C=C12 (stereo partly drawn) [Compound 328, (10R,13S)-17-(5-(difluoromethyl)pyridin-3-yl)-6,10,13-trimethyl-6,7,8,9,10,11,12,13-octahydro-1H-cyclopenta[a]phenanthren-3(2H)-one]
- IC50 [1, 5]: > 1000 nM
- inhibition at 0.001 µM [2, 6]: < 10%

SMILES: C[C@]12CCC(=O)C=C1C(C1CC1)C[C@@H]1[C@@H]2CC[C@]2(C)C(c3cncc(F)c3)=CC[C@@H]12 (stereo partly drawn) [Compound 331, (10R,13S)-6-cyclopropyl-17-(5-fluoropyridin-3-yl)-10,13-dimethyl-6,7,8,9,10,11,12,13,14,15-decahydro-1H-cyclopenta[a]phenanthren-3(2H)-one]
- IC50 [1, 5]: > 1000 nM
- inhibition at 0.001 µM [2, 6]: 10 to 50%

SMILES: CCC1CC2C(CC[C@]3(C)C(c4cccnc4)=CCC23)[C@@]2(C)CCC(=O)C=C12 (stereo partly drawn) [Compound 332, (10R,13S)-6-ethyl-10,13-dimethyl-17-(pyridin-3-yl)-6,7,8,9,10,11,12,13,14,15-decahydro-1H-cyclopenta[a]phenanthren-3(2H)-one]
- IC50 [1, 5]: 10 to 100 nM
- inhibition at 0.001 µM [2, 6]: 10 to 50%

SMILES: C[C@]12CC[C@H]3[C@@H](CC4(CC4)C4=CC(=O)CC[C@@]43C)C1=CC=C2c1cccnc1 [Compound 351, (10R,13S)-10,13-dimethyl-17-(pyridin-3-yl)-1,7,8,9,10,11,12,13-octahydrospiro[cyclopenta[a]phenanthrene-6,1′-cyclopropan]-3(2H)-one]
- IC50 [1, 7]: < 10 nM

SMILES: C=C1C[C@H]2C3=CC=C(c4cncc(F)c4)[C@@]3(C)CC[C@@H]2[C@@]2(C)CCC(=O)C=C12 [Compound 353, (10R,13S)-17-(5-fluoropyridin-3-yl)-10,13-dimethyl-6-methylene-6,7,8,9,10,11,12,13-octahydro-1H-cyclopenta[a]phenanthren-3(2H)-one]
- IC50 [1, 7]: 10 to 100 nM

SMILES: C[C@]12CC[C@H]3[C@@H](CC4(CC4)C4=CC(=O)CC[C@@]43C)C1=CC=C2c1cncc(F)c1 [Compound 354, (10R,13S)-17-(5-fluoropyridin-3-yl)-10,13-dimethyl-1,7,8,9,10,11,12,13-octahydrospiro[cyclopenta[a]phenanthrene-6,1′-cyclopropan]-3(2H)-one]
- IC50 [1, 7]: 10 to 100 nM

SMILES: CN1CC[C@@]2(C)C(=CC1=O)CCC1C3=CC=C(c4cncc(F)c4)[C@@]3(C)CCC12 (stereo partly drawn) [Compound 392, (5aR,7aS)-8-(5-fluoropyridin-3-yl)-3,5a,7a-trimethyl-3,4,5,5a,5b,6,7,7a,11,12-decahydrocyclopenta[5,6]naphtho[1,2-d]azepin-2(10bH)-one]
- IC50 [1, 7]: > 100 nM

SMILES: CC1CC2C3=CC=C(c4cccnc4)[C@@]3(C)CCC2[C@@]2(C)CCN(C)C(=O)C=C12 (stereo partly drawn) [Compound 393, (5aR,7aS)-3,5a,7a,12-tetramethyl-8-(pyridin-3-yl)-3,4,5,5a,5b,6,7,7a,11,12-decahydrocyclopenta[5,6]naphtho[1,2-d]azepin-2(10bH)-one]
- IC50 [1, 7]: 10 to 100 nM

SMILES: CC1CC2C3=CC=C(c4cncc(F)c4)[C@@]3(C)CCC2[C@@]2(C)CCN(C)C(=O)C=C12 (stereo partly drawn) [Compound 394, (5aR,7aS)-8-(5-fluoropyridin-3-yl)-3,5a,7a,12-tetramethyl-3,4,5,5a,5b,6,7,7a,11,12-decahydrocyclopenta[5,6]naphtho[1,2-d]azepin-2(10bH)-one]
- IC50 [1, 7]: > 100 nM

SMILES: CN1CC[C@@]2(C)C(=CC1=O)C1CC1[C@H]1C3=CC=C(c4cccnc4)[C@@]3(C)CC[C@@H]12 (stereo partly drawn) [Compound 396, (5aR,7aS)-3,5a,7a-trimethyl-8-(pyridin-3-yl)-3,4,5,5a,5b,6,7,7a,10b,10c,11,11a-dodecahydro-2H-cyclopenta[5,6]cyclopropa[3,4]naphtho[1,2-d]azepin-2-one]
- IC50 [1, 7]: 10 to 100 nM

SMILES: C[C@]12CCCN(S(C)(=O)=O)CC1CCC1C2CC[C@]2(C)C(n3cncc3C#N)=CCC12 (stereo partly drawn) [Compound 431, 1-((5aR,7aS)-5a,7a-dimethyl-2-(methylsulfonyl)-1,2,3,4,5,5a,5b,6,7,7a,10,10a,10b,11,12,12a-hexadecahydrocyclopenta[5,6]naphtho[2,1-c]azepin-8-yl)-1H-imidazole-5-carbonitrile]
- IC50 [1, 7]: > 1000 nM

SMILES: C[C@]12CCN(S(C)(=O)=O)CCC1CCC1C2CC[C@]2(C)C(n3cncc3C#N)=CCC12 (stereo partly drawn) [Compound 432, 1-((5aS,7aS)-5a,7a-dimethyl-3-(methylsulfonyl)-1,2,3,4,5,5a,5b,6,7,7a,10,10a,10b,11,12,12a-hexadecahydrocyclopenta[5,6]naphtho[1,2-d]azepin-8-yl)-1H-imidazole-5-carbonitrile]
- IC50 [1, 7]: > 1000 nM

SMILES: C[C@]12CCN(S(C)(=O)=O)CCC1CC[C@@H]1[C@@H]2CC[C@]2(C)C(n3ccnc3)=CC[C@@H]12 (stereo partly drawn) [Compound 438, (5aS,7aS)-8-(1H-imidazol-1-yl)-5a,7a-dimethyl-3-(methylsulfonyl)-1,2,3,4,5,5a,5b,6,7,7a,10,10a,10b,11,12,12a-hexadecahydrocyclopenta[5,6]naphtho[1,2-d]azepine]
- IC50 [1, 7]: > 1000 nM

SMILES: C[C@]12CCC3C(CCC4CCN(S(C)(=O)=O)CC[C@@]43C)C1=CC=C2n1ccnc1 (stereo partly drawn) [Compound 489, (5aS,7aS)-8-(1H-imidazol-1-yl)-5a,7a-dimethyl-3-(methylsulfonyl)-1,2,3,4,5,5a,5b,6,7,7a,10b,11,12,12a-tetradecahydrocyclopenta[5,6]naphtho[1,2-d]azepine]
- IC50 [1, 7]: > 1000 nM
